# According to patent publication US10556860B2, “hTERT modulators and methods of use” (Arizona Board of Regents on Behalf of the University of …, priority 2015, dated 2020):
# Assays:
# Telomeric G4 = experiment: CD melting (Tm), telomeric G4; assay type: binding
# Method: Circular dichroism. Oligomers of WT, G124A, G124/125A, G138/139A and G146A were synthesized and HPSF-purified by MGW Operon, Inc. For CD analysis, oligomers (5 μM) in a buffer containing 10 mM Tris-HCl (pH 7.5) and 140 mM KCl were annealed. For the CD analysis of the complex of oligomers and compounds, oligomers (5 μM) in a buffer containing 10 mM Tris-HCl (pH 7.5) and 5 mM KCl for GTC365 or 1 mM KCl for BRACO-19 were annealed. Oligomers and GTC365 or BRACO-19 were incubated overnight at room temperature. For the full-length of C-rich strand, the oligomer in a buffer of 10 mM Na cacodylate (pH 6.6) was annealed and then incubated with GTC365 overnight. CD analysis was conducted on a Jasco 810 spectropolarimeter (Jasco, Easton, Md.) using a quartz cell with 1 mm of path length, 1 nm of band width, and 1 s of response time for spectra at 20° C. Melting curves for the determination of Tm were obtained by recording ellipticity at 262 nm with increasing temperatures from 25° C. to 95° C. at a rate of 1.6° C./min. Tm of the C-rich strand with GTC365 was obtained from the CD signal at 286 nm within 10-60° C.
# CD and DMS footprinting analyses were conducted to characterize the binding of GTC365 and BRACO-19 to the 5-12 G-quadruplex. […] To verify the effects of compounds on the thermal stability of the WT and the mutant G-quadruplexes, Tms were determined by CD. […] Since acridine derivatives are known to bind to telomeric G-quadruplex, the effects of GTC365 and BRACO-19 on telomeric G-quadruplex stability were compared by CD.
# In contrast, BRACO-19 increased the Tm of telomeric G-quadruplex by ˜60% compared to that of the hTERT G-quadruplex at 0.5 and 1 equiv. A summary of the comparative Tms of GTC365 and BRACO-19 in hTERT and telomeric DNA is shown below.
# [1] = system: hTERT core promoter (pGL3-WT); experiment: Luciferase assay, pGL3-WT in MCF7 cells; assay type: cell-based, human; conditions: 24 h
# Method: Luciferase assay. From gDNA extracted from HeLa cells, the hTERT core promoter region, including −350 bp to +12 from the transcription start site, was amplified using a pair of primers, including KpnI and NheI restriction sites, for cloning of pGL3-hTERT with WT promoter sequence. Mutant constructs were generated by PCR-based site-directed mutagenesis. The sequence of each construct was confirmed by sequencing analysis. MCF7 cells in 24-well plate were transfected with 200 ng of pGL3 construct and 5 ng of pRL-TK by Fugene® HD Transfection Reagent and then incubated for 6 h. Media were replaced by fresh ones and the cells were treated with GTC365 or BRACO-19. The same volume of DMSO served as a control. […]
# Since MYC is a key transcription factor for activation of the hTERT gene by binding to an E-box in the hTERT promoter region and is one of the oncogenes having a G-quadruplex structure in the promoter region, it was important to confirm that GTC365 affects the repression of hTERT promoter activity directly by binding to the G-quadruplex structure formed in the hTERT promoter and not by binding to the G-quadruplex in the MYC promoter. To distinguish between these possibilities, the luciferase activity of the pGL3-WT and pGL3-E-box mutant constructs were determined after treatment with GTC365. […]
# BCL2 mRNA = experiment: qPCR of BCL2 mRNA in MCF7 cells; assay type: cell-based, human; conditions: 72 h
# Method: qPCR. MCF7 and melanoma cells were treated with GTC365 and BRACO-19 for 72 h. Total RNA was extracted using an RNeasy mini-prep kit (Qiagen) and quantitated by measuring absorbance at 260 nm. cDNA was synthesized using a Takara PrimeScript™ RT Reagent Kit with gDNA eraser and then used as a template for qPCR. The qPCR was performed using Kapa Probe Fast qPCR Master Mix with ABI Taqman probes of hTERT (Hs00972656_m1), BCL2 (HS00608023_m1, FAM-labeled) or MYC (Hs00153408_m1), and GAPDH (Hs02758991_g1, VIC-labeled). The Ct values were measured by running Rotor-Gene Q, and the relative quantity of hTERT, BCL2, and MYC mRNA was obtained compared to GAPDH as an internal control.
# BCL2 is a downstream molecule to hTERT such that BCL2 expression is activated by hTERT to repress apoptosis. To further define the effect of GTC365 on the transcription of hTERT, the relative mRNA levels of MYC and BCL2 were determined by quantitative PCR analysis in MCF7 cells after treatment with GTC365 for 72 h. […] A series of GTC260 analogs were synthesized and their effect on hTERT gene expression in MCF7A and U87 cells determined (FIG. 7). […] Therefore, GTC365 directly repressed the transcription of hTERT and then led to a downstream decrease of BCL2 expression.
SMILES,Tm of telomeric G-quadruplex increased compared to that of the hTERT G-quadruplex (Telomeric G4; 0.5 and 1 equiv),increase in Tm (ΔTm) (Telomeric G4; 0.5 equivalents),increase in Tm (ΔTm) (Telomeric G4; 1 equivalent),luciferase activity [1],effect on BCL2 mRNA level (BCL2 mRNA),Tm increase of telomeric G-quadruplex less than that of the hTERT G-quadruplex (Telomeric G4; 1 and 2 equiv),increase in Tm (ΔTm) (Telomeric G4; 2 equivalents),decrease of BCL2 mRNA level (BCL2 mRNA; 1 μM)
"CN(C)c1ccc(Nc2c3ccc(NC(=O)CCN4CCCC4)cc3nc3cc(NC(=O)CCN4CCCC4)ccc23)cc1 [BRACO-19, reference compound]",~60%,4.24 °C,14.6 °C,decreased,no significant effect,,,
N=C(N)NCCCS(=O)(=O)Nc1ccc(Nc2c3ccccc3nc3cc([N+](=O)[O-])ccc23)cc1 [GTC365],,,4.4 °C,dose-dependent decrease,,42%,7.5 °C,up to 18%
